Results from article PMC12024264, “Frog Skin Peptides Hylin-a1, AR-23, and RV-23: Promising Tools Against Carbapenem-Resistant Escherichia coli and Klebsiella pneumoniae Infections” (Antibiotics, 2025).
≈ marks a conversion by molar mass, not a printed value. Where two headings read alike, the source gives them in different places.

How the values were obtained:
[1] = tested on: K. pneumoniae 1711; assay: Antibiotic resistance profile of clinical isolate (Table S1); format: cell-based, Klebsiella pneumoniae; details: Table S1, K. pneumoniae 1711
Experimental: (§1) Each strain was grown in Mueller Hinton Broth (MH Broth), and 5 × 10^5 CFU/mL was used to evaluate antibacterial activity. Clinical carbapenem-resistant K. pneumoniae and E. coli isolates were collected at the AOU of Virology and Microbiology of the University of Campania “Luigi Vanvitelli”. […]
(§2) Table S1. Antibiotic resistance profile of K. pneumoniae and E. coli clinical isolates . MIC: Minimum Inhibitory
(§3) Concentration was expressed in µg/mL; S: Sensible; I: Intermediate; R: Resistant.
(§4) Antibiotic Resistance Profile of the Clinical Isolated Bacteria
(§5) Antibiotics MIC (µg/mL) Interpretation […]

[2] = tested on: K. pneumoniae 1745; assay: as above; format: cell-based, Klebsiella pneumoniae; details: Table S1, K. pneumoniae 1745
Experimental: as §1, §2, §3, §4, §5

[3] = tested on: K. pneumoniae 1746; assay: as above; format: cell-based, Klebsiella pneumoniae
Experimental: as §1, §2, §3, §4, §5

[4] = tested on: E. coli 1376; assay: as above; format: cell-based, Escherichia coli
Experimental: as §1, §2, §3, §4, §5

[5] = tested on: E. coli 1441; assay: as above; format: cell-based, Escherichia coli
Experimental: as §1, §2, §3, §4, §5

[6] = tested on: E. coli 2267; assay: as above; format: cell-based, Escherichia coli; details: Table S1, E. coli 2267
Experimental: as §1, §2, §3, §4, §5

[7] = tested on: E. coli 3140; assay: as above; format: cell-based, Escherichia coli
Experimental: as §1, §2, §3, §4, §5

[8] = tested on: E. coli 716; assay: as above; format: cell-based, Escherichia coli
Experimental: as §1, §2, §3, §4, §5

[9] = tested on: K. pneumoniae; assay: Checkerboard assay with meropenem
Excerpt: (§6) The synergistic effect of the selected peptides and meropenem was examined using a checkerboard assay. This method investigates the interaction between various antimicrobial agents and their combined effectiveness against bacteria. […] It determines whether the combined agents act synergistically, additively, or antagonistically to identify combinations that can reduce drug resistance.
(§7) The rows contain two-fold dilutions of meropenem, while we reported a two-fold serial dilution of AMPs in the columns.
(§8) The checkerboard test was carried out to assess the antibacterial activity of peptides in combination with antibiotics. The test was performed by preparing the bacterial inoculum in the same manner as the tests described above. Non-toxic concentrations of all peptides and serial dilutions of meropenem were inoculated in a 96-well plate either alone or in combination. After 20 h, the plate was read at OD600, and the Fractional Inhibitory Concentration (FICI) was calculated according to the following formula:FICI = FIC (A) + FIC (B)
(§9) FIC (A) = MIC peptide in combination/MIC peptide alone
(§10) FIC (B) = MIC meropenem in combination/MIC Meropenem alone

[10] = tested on: E. coli; assay: Checkerboard assay with meropenem
Excerpt: as §6, §7, §8, §9, §10

[11] = tested on: K. pneumoniae 311; assay: Antibiotic resistance profile of clinical isolate (Table S1); format: cell-based, Klebsiella pneumoniae
Experimental: as §1, §2, §3, §4, §5

[12] = Klebsiella pneumoniae, read-out: MIC
[13] = Escherichia coli, read-out: MIC

Row | Compound | Interpretation [1] | Interpretation [2] | Interpretation ([3]; Table S1, K. pneumoniae 1746) | Interpretation ([4]; Table S1, E. coli 1376) | Interpretation ([5]; Table S1, E. coli 1441) | Interpretation [6] | Interpretation ([7]; Table S1, E. coli 3140) | Interpretation ([8]; Table S1, E. coli 716) | Interpretation ([11]; Table S1, K. pneumoniae 311) | MIC [1] | MIC [2] | MIC ([3]; Table S1, K. pneumoniae 1746) | MIC ([11]; Table S1, K. pneumoniae 311) | MIC ([4]; Table S1, E. coli 1376) | MIC ([5]; Table S1, E. coli 1441) | MIC [6] | MIC ([8]; Table S1, E. coli 716) | MIC ([7]; Table S1, E. coli 3140) | other results
1 | C[C@@H](O)[C@H]1C(=O)N2C(C(=O)O)=C(S[C@@H]3CN[C@H](C(=O)N(C)C)C3)[C@H](C)[C@H]12 [Meropenem] | R | R | S | R | S | R | S | R |  |  |  |  |  |  |  |  |  |  | MIC [1, 12]: > 16 µg/mL; MIC [2, 12]: > 16 µg/mL; MIC ([3]; Klebsiella pneumoniae, 1746): 1 µg/mL (≈ 2.61 µM); MIC ([4]; Escherichia coli, 1376): > 16 µg/mL; MIC ([5]; Escherichia coli, 1441): 1 µg/mL (≈ 2.61 µM); MIC [6, 13]: > 16 µg/mL; MIC ([7]; Escherichia coli, 3140): 0.5 µg/mL (≈ 1.3 µM); MIC ([8]; Escherichia coli, 716): > 16 µg/mL; MIC ([9]; Klebsiella pneumoniae, read-out: MIC of meropenem): 5 µg/mL; MIC of antibiotic (meropenem) in combination ([9]; combined with AR23 at 3.125 μM): 0.625 µg/mL; MIC of antibiotic (meropenem) in combination ([9]; combined with RV-23 at 3.125 μM): 0.625 µg/mL; MIC ([10]; Escherichia coli, read-out: MIC of meropenem): 5 µg/mL; MIC of antibiotic (meropenem) in combination ([10]; combined with AR23 at 6.25 μM): 1.25 µg/mL; MIC of antibiotic (meropenem) in combination ([10]; combined with Hylin-a1 at 3.125 μM): 2.5 µg/mL; MIC of antibiotic (meropenem) in combination ([10]; combined with RV-23 at 6.25 μM): 2.5 µg/mL
2 | NC[C@H]1O[C@H](O[C@H]2[C@H](O)[C@@H](O[C@H]3O[C@H](CO)[C@@H](O)[C@H](N)[C@H]3O)[C@H](N)C[C@@H]2N)[C@H](N)C[C@@H]1O [Tobramycin] | R | R | R | R | S | S | S | S | R |  |  |  |  |  |  |  |  |  | MIC [1, 12]: > 4 µg/mL; MIC [2, 12]: > 4 µg/mL; MIC ([3]; Klebsiella pneumoniae, 1746): > 4 µg/mL; MIC ([11]; Klebsiella pneumoniae, 311): > 4 µg/mL; MIC ([4]; Escherichia coli, 1376): > 4 µg/mL; MIC ([5]; Escherichia coli, 1441): ≤ 1 µg/mL; MIC [6, 13]: ≤ 1 µg/mL; MIC ([7]; Escherichia coli, 3140): ≤ 1 µg/mL; MIC ([8]; Escherichia coli, 716): ≤ 1 µg/mL
3 | Amoxicillin/clavulanate | R | R | R | R | R | R | R | R | R | > 32/2 | > 32/2 | > 32/2 | > 32/2 | > 32/2 | > 32/2 |  |  |  | 
4 | Ceftazidime-avibactam | R | R | R | S | S | S | S | S | S | > 8/4 | > 8/4 | > 8/4 | 1/ 4 |  |  | 8/4 | 8/4 |  | 
5 | Ceftolozano tazobactam | R | R | R | R | R | R | R | R | R | > 4/4 | > 4/4 | > 4/4 | > 4/4 | > 4/4 | > 4/4 | > 4/4 | > 4/4 | > 4/4 | 
6 | Meropenem-vaborbactam | R | R | S | R | S | R | S | R | S | > 8/8 | > 8/8 | ≤ 2/8 | 4/ 8 | > 8/8 | ≤ 2/8 |  | > 32/2 | ≤ 2/8 | 
7 | Piperacillin/tazobactam | R | R | R | R | R | R | R | R | R | > 64/4 | > 64/4 | 32/4 | > 64/4 | > 64/4 | > 64/4 | > 64/4 | > 64/4 | > 64/4 | 
8 | Trimethoprim/sulfamethoxazole | R | R | S | R | S | R | S | R | S | > 4/76 | > 4/76 | ≤ 1/19 | 2/38 | > 4/76 | ≤ 1/19 | > 4/76 | > 4/76 | ≤ 1/19 | 
